Data taken from ChEMBL document CHEMBL4184163, “Aspergillus candidus is a newly recognized source of sphaeropsidin A: Isolation, semi-synthetic derivatization and anticancer evaluation” (Bioorg Med Chem Lett, 2017).
Calls of active or inactive are those of the source. No cut-off for these calls is given here.

Legend:
Homo sapiens [1] = species: Homo sapiens; assay: Antiproliferative activity against human D423 cells grown as 2D culture at 0.0625 to 10 uM after 5 days by CellTiter-Glo luminescence assay; type: functional, cell-based
Homo sapiens [2] = species: Homo sapiens; assay: Antiproliferative activity against human D423 cells grown as 3D culture at 10 uM after 5 days by CellTiter-Glo 3D viability assay; type: functional, cell-based
Homo sapiens [3] = species: Homo sapiens; assay: Antiproliferative activity against human GLI56 cells grown as 3D culture at 10 uM after 5 days by CellTiter-Glo 3D viability assay; type: functional, cell-based
Homo sapiens [4] = species: Homo sapiens; assay: Antiproliferative activity against human GLI56 cells grown as 2D culture at 0.0625 to 10 uM after 5 days by CellTiter-Glo luminescence assay; type: functional, cell-based
Homo sapiens [5] = species: Homo sapiens; assay: Cytotoxicity against human GLI56 cells grown as 3D culture assessed as disruption of morphological integrity at 10 uM after 5 days by confocal laser scanning microscopic method; type: functional, cell-based
Homo sapiens [6] = species: Homo sapiens; assay: Cytotoxicity against human D423 cells grown as 3D culture assessed as disruption of morphological integrity at 10 uM after 5 days by confocal laser scanning microscopic method; type: functional, cell-based
[7] = Growth inhibition of normal human epidermal melanocytes by MTT assay; type: cell-based, Melanocyte
[8] = system: Panel NCI-60 (60 carcinoma cell lines); assay: Growth inhibition of human NCI60 cells; type: functional

SMILES	Activity (Homo sapiens [1])	Activity (Homo sapiens [2])	Activity (Homo sapiens [3])	Activity (Homo sapiens [4])	Activity (Homo sapiens [5])	Activity (Homo sapiens [6])	GI50 [7] [µM]	GI50 [8] [µM]
CC1(C)CCC[C@]23C(=O)O[C@](O)(C(=O)C4=C[C@@](C)(/C=C/[Si](C)(C)C)CC[C@@]42O)[C@@H]13	Active	inactive	inactive	Active	–	–	–	–
CC1(C)CCC[C@]23C(=O)O[C@](O)(C(=O)C4=C[C@@](C)(/C=C/c5ccc(Cl)cc5)CC[C@@]42O)[C@@H]13	Active	Active	Active	Active	Active	Active	–	–
C=C[C@]1(C)C=C2C(=O)[C@@]3(OC(=O)CCC)OC(=O)[C@@]4(CCCC(C)(C)[C@H]34)[C@@]2(O)CC1	Active	inactive	Active	Active	Active	–	–	–
C=C[C@]1(C)C=C2C(=O)[C@@]3(O)OC(=O)[C@@]4(CCCC(C)(C)[C@H]34)[C@@]2(O)CC1 [SPHAEROPSIDIN A]	Active	inactive	inactive	Active	inactive	–	13	1.6
C=C[C@]1(C)C=C2C(=O)[C@@]3(OC(=O)c4ccc(C)o4)OC(=O)[C@@]4(CCCC(C)(C)[C@H]34)[C@@]2(O)CC1	Active	Active	Active	Active	Active	Active	–	–
C=CCCCC(=O)O[C@]12OC(=O)[C@@]3(CCCC(C)(C)[C@H]13)[C@@]1(O)CC[C@](C)(C=C)C=C1C2=O	Active	inactive	Active	Active	Active	–	–	–
